pEC50: −log10 of the molar value. Where “and” joins values, the source holds several entries; their conditions need not be identical. Equal values may be shown once. Where a name gives a salt, the structure may show the parent alone. Marks after values point to notes of the source that are not given here.
Experiments:
[1] = tested on: interferon-α production in hPBMCs; assay: Induction of interferon-α production in hPBMCs; type: cell-based, human; settings: interferon-α production from hPBMCs; for Weighted MEC: geometric mean of all individual MECs across all donors, 24 hours; for individual MEC values: per donor
Method: Treatment of hPBMCs with a TLR7 agonist typically induces substantial production of interferon-α as well as lesser amounts of a variety of other cytokines and chemokines. A typical experiment uses hPBMCs isolated from a healthy donor and placed in replicate cell culture wells; typically 1.0-7.5×10^6 cells are placed in each well. Test compound is added and the cells cultured for 24 hours at 37° C. in a humidified atmosphere containing 5% CO2 post-addition; untreated controls are included. Secreted interferon-α production is measured using an a multisubtype interferon-α ELISA kit like those from PBL Assay Sciences or specifically as IFNα2a as part of a panel of cytokines and chemokines using luminex methodologies. The minimal effective concentration (MEC) is the minimum concentration in a dose response curve where a significant increase in interferon-α production (generally at least 20 pg/ml) is observed above baseline. MEC values for each compound are determined for at least three donors. The weighted MEC for each compound is the geometric mean of all individual MECs across all donors. Concentrations tested typically consist of a two-fold dilution series starting at 100 μM. In the calculation of weighted MEC, any value >100 μM is arbitrarily set to 200 μM unless all MECs for a compound exceed 100 μM

human TLR7 = human TLR7 (Homo sapiens (Human), UniProt Q9NYK1); assay: TLR7 reporter assay (HEK293-TLR-NF-κB inducible SEAP reporter); type: cell-based; settings: HEK293 cells stably expressing human TLR7 with NF-κB-driven SEAP reporter; 15-24 hours
Sequence of human TLR7 (Q9NYK1 27-1049): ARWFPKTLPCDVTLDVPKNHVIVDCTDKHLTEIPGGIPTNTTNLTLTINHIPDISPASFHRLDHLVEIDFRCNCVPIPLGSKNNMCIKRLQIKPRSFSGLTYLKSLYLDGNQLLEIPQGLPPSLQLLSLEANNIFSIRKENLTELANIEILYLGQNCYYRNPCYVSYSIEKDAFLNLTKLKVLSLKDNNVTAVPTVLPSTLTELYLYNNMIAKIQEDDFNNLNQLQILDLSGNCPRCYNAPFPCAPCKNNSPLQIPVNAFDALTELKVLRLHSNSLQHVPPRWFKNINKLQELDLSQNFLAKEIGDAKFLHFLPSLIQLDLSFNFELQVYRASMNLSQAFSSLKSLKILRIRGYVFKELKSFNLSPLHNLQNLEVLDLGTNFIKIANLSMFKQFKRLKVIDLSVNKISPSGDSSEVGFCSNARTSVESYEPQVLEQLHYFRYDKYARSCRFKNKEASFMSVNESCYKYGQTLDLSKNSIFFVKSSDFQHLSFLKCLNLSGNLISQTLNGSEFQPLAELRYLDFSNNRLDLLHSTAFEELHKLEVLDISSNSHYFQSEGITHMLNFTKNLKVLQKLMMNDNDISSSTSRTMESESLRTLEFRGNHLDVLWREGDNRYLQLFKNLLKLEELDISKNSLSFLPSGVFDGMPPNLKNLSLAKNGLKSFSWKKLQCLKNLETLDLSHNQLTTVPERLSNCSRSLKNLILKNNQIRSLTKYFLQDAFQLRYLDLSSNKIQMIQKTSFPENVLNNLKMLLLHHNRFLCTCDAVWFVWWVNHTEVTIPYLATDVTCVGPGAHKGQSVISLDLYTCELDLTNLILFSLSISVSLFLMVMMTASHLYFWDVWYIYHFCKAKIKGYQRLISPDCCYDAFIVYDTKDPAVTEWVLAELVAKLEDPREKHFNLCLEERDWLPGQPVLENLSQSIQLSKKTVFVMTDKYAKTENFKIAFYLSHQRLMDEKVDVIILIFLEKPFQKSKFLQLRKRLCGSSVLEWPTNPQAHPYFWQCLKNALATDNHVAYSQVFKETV
Source text: The engagement of TLRs by cognate ligands triggers downstream signaling cascades, leading to the activation of NF-κB and other transcription factors which initiate various immunomodulatory effects. The human embryonic kidney cell line, HEK293, is essentially non-responsive to TLR agonists, but ectopic expression of TLRs in these cells allows cognate agonists to activate endogenous NF-κB. Accordingly, the HEK293-TLR-NF-κB inducible reporter system is used to assay TLR agonists. HEK293 cell lines stably expressing human TLR7 or TLR8 together with an NF-κB-driven-secreted alkaline phosphatase (SEAP) reporter were invented at InvivoGen (San Diego, Calif., USA) and used to assess compounds of the present invention for TLR7 and TLR8 agonist activities. Cells were seeded at 2-5×10^4 cells/well in 96 well plates ([…]) and treated with various concentrations of compound (10 μl) for 15-24 hours. SEAP activity was determined by measuring OD at 650 nm; the media used to culture the cell lines contains the reagents required for SEAP detection. The EC50 values in Table 2 are calculated from fitting the dose response of measured SEAP activity for each compound to the following equation: Y=ymax*c^nh/(EC50^nh+c^nh)+blank where Y is the experimentally measured OD650 at concentration c of test article, blank is the observed OD650 in the absence of TLR7 agonist, ymax is the difference between the measured OD650 in the presence of either 28.5 μM resiquimod or 1.675 μM CL307 and the blank and values of EC50 and nh are determined by nonlinear least squares analysis.

Row | pEC50 (human TLR7) | Compound | Weighted MEC [1] | individual MEC values [1] [µM]
1 | 3.53 | C=CCn1c(=O)n([C@@H]2O[C@H](CO)[C@H](O)[C@H]2O)c2nc(N)[nH]c(=O)c21 [Compound 2, 7-Allyl-2-amino-9-((2R,3R,4R,5R)-3,4-dihydroxy-5-(hydroxymethyl)tetrahydrofuran-2-yl)-7,9-dihydro-1H-purine-6,8-dione] | 79 µM | 
2 | 3.08 | CC#CCn1c(=O)n([C@@H]2O[C@H](CO)[C@H](O)[C@H]2O)c2nc(N)[nH]c(=O)c21 [Compound 6, 2-Amino-7-(but-2-yn-1-yl)-9-((2R,3R,4R,5R)-3,4-dihydroxy-5-(hydroxymethyl)tetrahydrofuran-2-yl)-7,9-dihydro-1H-purine-6,8-dione] | 79 µM | 
3 | 3.27 | C/C=C/Cn1c(=O)n([C@@H]2O[C@H](CO)[C@H](O)[C@H]2O)c2nc(N)[nH]c(=O)c21 [Compound 7, 2-Amino-7-((E)-but-2-en-1-yl)-9-((2R,3R,4R,5R)-3,4-dihydroxy-5-(hydroxymethyl)tetrahydrofuran-2-yl)-7,9-dihydro-1H-purine-6,8-dione] | 63 µM | 
4 | 3.38 | Nc1nc2c(c(=O)[nH]1)n(C/C=C/CO)c(=O)n2[C@@H]1O[C@H](CO)[C@H](O)[C@H]1O [Compound 8, 2-Amino-9-((2R,3R,4R,5R)-3,4-dihydroxy-5-(hydroxymethyl)tetrahydrofuran-2-yl)-7-((E)-4-hydroxybut-2-en-1-yl)-7,9-dihydro-1H-purine-6,8-dione] | >100* μM | 
5 | 4.82 | Nc1nc2c(c(=O)[nH]1)n(C/C=C/C(=O)O)c(=O)n2[C@@H]1O[C@H](CO)[C@H](O)[C@H]1O [Compound 9, (E)-4-(2-Amino-9-((2R,3R,4R,5R)-3,4-dihydroxy-5-(hydroxymethyl)tetrahydrofuran-2-yl)-6,8-dioxo-1,6,8,9-tetrahydro-7H-purin-7-yl)but-2-enoic Acid] | >100* μM | 
6 | 3.61 | COC(=O)/C=C/Cn1c(=O)n([C@@H]2O[C@H](CO)[C@H](O)[C@H]2O)c2nc(N)[nH]c(=O)c21 [Compound 10, Methyl (E)-4-(2-amino-9-((2R,3R,4R,5R)-3,4-dihydroxy-5-(hydroxymethyl)tetrahydrofuran-2-yl)-6,8-dioxo-1,6,8,9-tetrahydro-7H-purin-7-yl)but-2-enoate] | >100* μM | 
7 | 3.60 | Nc1nc2c(c(=O)[nH]1)n(CC#CCO)c(=O)n2[C@@H]1O[C@H](CO)[C@H](O)[C@H]1O [Compound 11, 2-Amino-9-((2R,3R,4R,5R)-3,4-dihydroxy-5-(hydroxymethyl)tetrahydrofuran-2-yl)-7-(4-hydroxybut-2-yn-1-yl)-7,9-dihydro-1H-purine-6,8-dione] | 79 µM | 
8 | 3.39 | COC(=O)Cn1c(=O)n([C@@H]2O[C@H](CO)[C@H](O)[C@H]2O)c2nc(N)[nH]c(=O)c21 [Compound 12, Methyl 2-(2-amino-9-((2R,3R,4R,5R)-3,4-dihydroxy-5-(hydroxymethyl)tetrahydrofuran-2-yl)-6,8-dioxo-1,6,8,9-tetrahydro-7H-purin-7-yl)acetate] | >100* μM | 
9 | 3.82 | Nc1nc2c(c(=O)[nH]1)n(CC(F)(F)F)c(=O)n2[C@@H]1O[C@H](CO)[C@H](O)[C@H]1O [Compound 13, 2-Amino-9-((2R,3R,4R,5R)-3,4-dihydroxy-5-(hydroxymethyl)tetrahydrofuran-2-yl)-7-(2,2,2-trifluoroethyl)-7,9-dihydro-1H-purine-6,8-dione] | 66* μM | 
10 | 3.74 | Nc1nc2c(c(=O)[nH]1)n(CC(F)F)c(=O)n2[C@@H]1O[C@H](CO)[C@H](O)[C@H]1O [Compound 14, 2-Amino-7-(2,2-difluoroethyl)-9-((2R,3R,4R,5R)-3,4-dihydroxy-5-(hydroxymethyl)tetrahydrofuran-2-yl)-7,9-dihydro-1H-purine-6,8-dione] | 100* μM | 
11 | < 3.30 | Cn1c(=O)n([C@@H]2O[C@H](CO)[C@H](O)[C@H]2O)c2nc(N)[nH]c(=O)c21 [Compound 15, 2-Amino-9-((2R,3R,4R,5R)-3,4-dihydroxy-5-(hydroxymethyl)tetrahydrofuran-2-yl)-7-methyl-7,9-dihydro-1H-purine-6,8-dione] |  | 
12 | 3.27 | CCn1c(=O)n([C@@H]2O[C@H](CO)[C@H](O)[C@H]2O)c2nc(N)[nH]c(=O)c21 [Compound 16, 2-Amino-9-((2R,3R,4R,5R)-3,4-dihydroxy-5-(hydroxymethyl)tetrahydrofuran-2-yl)-7-ethyl-7,9-dihydro-1H-purine-6,8-dione] | >100* μM | 
13 | 3.47 | CCCn1c(=O)n([C@@H]2O[C@H](CO)[C@H](O)[C@H]2O)c2nc(N)[nH]c(=O)c21 [Compound 17, 2-Amino-9-((2R,3R,4R,5R)-3,4-dihydroxy-5-(hydroxymethyl)tetrahydrofuran-2-yl)-7-propyl-7,9-dihydro-1H-purine-6,8-dione] | 100* μM | 
14 | 3.48 | CCCCn1c(=O)n([C@@H]2O[C@H](CO)[C@H](O)[C@H]2O)c2nc(N)[nH]c(=O)c21 [Compound 18, 2-Amino-7-butyl-9-((2R,3R,4R,5R)-3,4-dihydroxy-5-(hydroxymethyl)tetrahydrofuran-2-yl)-7,9-dihydro-1H-purine-6,8-dione] | less than or equal to 40 μM and 37 μM | < 100
15 | 3.31 | Nc1nc2c(c(=O)[nH]1)n(CCCCO)c(=O)n2[C@@H]1O[C@H](CO)[C@H](O)[C@H]1O [Compound 19, 2-Amino-9-((2R,3R,4R,5R)-3,4-dihydroxy-5-(hydroxymethyl)tetrahydrofuran-2-yl)-7-(4-hydroxybutyl)-7,9-dihydro-1H-purine-6,8-dione] | >100* μM | 
16 | 4.10 | Nc1nc2c(c(=O)[nH]1)n(CCCC(=O)O)c(=O)n2[C@@H]1O[C@H](CO)[C@H](O)[C@H]1O [Compound 20, 4-(2-Amino-9-((2R,3R,4R,5R)-3,4-dihydroxy-5-(hydroxymethyl)tetrahydrofuran-2-yl)-6,8-dioxo-1,6,8,9-tetrahydro-7H-purin-7-yl)butanoic Acid] | >100* μM | 
17 | 3.28 | COC(=O)CCCn1c(=O)n([C@@H]2O[C@H](CO)[C@H](O)[C@H]2O)c2nc(N)[nH]c(=O)c21 [Compound 21, Methyl 4-(2-amino-9-((2R,3R,4R,5R)-3,4-dihydroxy-5-(hydroxymethyl)tetrahydrofuran-2-yl)-6,8-dioxo-1,6,8,9-tetrahydro-7H-purin-7-yl)butanoate] | >100* μM | 
18 | 3.25 | COCCn1c(=O)n([C@@H]2O[C@H](CO)[C@H](O)[C@H]2O)c2nc(N)[nH]c(=O)c21 [Compound 22, 2-Amino-9-((2R,3R,4R,5R)-3,4-dihydroxy-5-(hydroxymethyl)tetrahydrofuran-2-yl)-7-(2-methoxyethyl)-7,9-dihydro-1H-purine-6,8-dione] | >100* μM | 
19 | < 3.30 | NCCn1c(=O)n([C@@H]2O[C@H](CO)[C@H](O)[C@H]2O)c2nc(N)[nH]c(=O)c21 [Compound 23, 2-Amino-7-(2-aminoethyl)-9-((2R,3R,4R,5R)-3,4-dihydroxy-5-(hydroxymethyl)tetrahydrofuran-2-yl)-7,9-dihydro-1H-purine-6,8-dione hydrochloride] |  | 
20 | 3.33 | C#CCn1c(=O)n([C@@H]2O[C@H](CO)[C@H](F)[C@H]2O)c2nc(N)[nH]c(=O)c21 [Compound 28, 2-Amino-9-((2R,3S,4R,5R)-4-fluoro-3-hydroxy-5-(hydroxymethyl)tetrahydrofuran-2-yl)-7-(prop-2-yn-1-yl)-7,9-dihydro-1H-purine-6,8-dione] | less than or equal to 40 μM and 33 μM | < 100
21 | 3.16 | Nc1nc2c(c(=O)[nH]1)n(Cc1ccccc1)c(=O)n2[C@@H]1O[C@H](CO)C[C@H]1O [Compound 33, 2-Amino-7-benzyl-9-((2R,3R,5S)-3-hydroxy-5-(hydroxymethyl)tetrahydrofuran-2-yl)-7,9-dihydro-1H-purine-6,8-dione] | 79* μM | 
